Patent US10758534B2 (Vertex Pharmaceuticals Incorporated, priority 2014, dated 2020)

Target: T1, F508del (Homo sapiens, UniProt P13569, DEL508-508)
T1 construct: expressed in transfected cells
Experiment: Protocol 2: FRET membrane potential optical assay (VIPR), identification of correction compounds
Assay type: cell-based
Conditions: Table 3; compounds of Table 1 as modulators of CFTR activity; protocol not stated
In short: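 Correction of the F508del trafficking defect is scored as forskolin (10 μM)/genistein (20 μM)-stimulated Cl^− efflux in NIH3T3 mouse fibroblasts after a 16 hr, 37° C. compound exposure. Depolarization was followed optically using voltage-sensing FRET dyes.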

T1 sequence (P13569 with tags, fused parts or gaps DEL508-508): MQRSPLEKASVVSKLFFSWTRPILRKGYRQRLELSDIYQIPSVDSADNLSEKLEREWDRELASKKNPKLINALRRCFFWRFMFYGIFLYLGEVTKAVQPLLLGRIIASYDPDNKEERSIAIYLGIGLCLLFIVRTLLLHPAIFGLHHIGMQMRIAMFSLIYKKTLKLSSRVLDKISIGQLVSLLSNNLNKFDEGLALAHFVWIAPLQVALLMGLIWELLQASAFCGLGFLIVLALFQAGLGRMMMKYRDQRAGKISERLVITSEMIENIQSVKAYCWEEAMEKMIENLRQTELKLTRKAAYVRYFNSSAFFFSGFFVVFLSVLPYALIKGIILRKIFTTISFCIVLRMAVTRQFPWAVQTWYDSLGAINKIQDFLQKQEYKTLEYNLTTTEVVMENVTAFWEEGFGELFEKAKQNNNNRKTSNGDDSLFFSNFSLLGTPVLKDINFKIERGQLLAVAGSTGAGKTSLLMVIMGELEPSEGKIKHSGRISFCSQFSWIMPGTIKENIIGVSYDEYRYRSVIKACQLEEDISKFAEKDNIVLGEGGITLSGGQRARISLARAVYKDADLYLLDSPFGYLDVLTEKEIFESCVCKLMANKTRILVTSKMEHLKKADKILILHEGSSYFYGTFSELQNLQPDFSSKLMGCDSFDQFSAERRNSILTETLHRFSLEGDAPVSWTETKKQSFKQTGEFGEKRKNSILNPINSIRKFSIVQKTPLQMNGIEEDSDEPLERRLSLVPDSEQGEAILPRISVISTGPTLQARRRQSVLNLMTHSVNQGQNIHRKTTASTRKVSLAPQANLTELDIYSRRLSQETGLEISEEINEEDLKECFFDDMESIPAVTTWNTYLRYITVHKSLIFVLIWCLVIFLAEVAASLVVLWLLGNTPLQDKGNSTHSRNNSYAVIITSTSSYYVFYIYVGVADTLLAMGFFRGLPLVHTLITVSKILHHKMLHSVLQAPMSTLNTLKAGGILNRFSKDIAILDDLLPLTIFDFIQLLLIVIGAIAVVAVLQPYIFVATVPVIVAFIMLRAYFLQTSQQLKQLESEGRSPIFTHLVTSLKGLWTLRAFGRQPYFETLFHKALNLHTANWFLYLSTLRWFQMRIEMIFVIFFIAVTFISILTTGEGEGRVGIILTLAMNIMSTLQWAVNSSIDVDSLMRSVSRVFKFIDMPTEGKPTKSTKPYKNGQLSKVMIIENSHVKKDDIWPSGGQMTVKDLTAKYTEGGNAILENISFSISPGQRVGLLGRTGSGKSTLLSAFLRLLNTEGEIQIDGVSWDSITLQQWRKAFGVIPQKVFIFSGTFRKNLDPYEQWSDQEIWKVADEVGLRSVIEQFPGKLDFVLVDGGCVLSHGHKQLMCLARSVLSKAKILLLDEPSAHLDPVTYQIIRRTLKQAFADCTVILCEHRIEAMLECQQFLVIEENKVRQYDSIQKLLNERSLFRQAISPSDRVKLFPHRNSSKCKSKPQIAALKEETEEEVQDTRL

| Compound | EC30 |
| --- | --- |
| CC(C)COc1cc(F)cc(-c2ccc(C(=O)NS(=O)(=O)c3cccc(N)n3)c(N3CCCC(C)C3)n2)c1 (stereo not shown) [Compound 735, N-[(6-amino-2-pyridyl)sulfonyl]-6-(3-fluoro-5-isobutoxy-phenyl)-2-(3-methyl-1-piperidyl)pyridine-3-carboxamide] | +++ (“+++” means <3 uM) |
| CC1CCN(c2nc(-c3ccc(OC(C)C)nc3)ccc2C(=O)NS(=O)(=O)c2cccc(N)n2)CC1 [Compound 736, N-[(6-amino-2-pyridyl)sulfonyl]-6-(6-isopropoxy-3-pyridyl)-2-(4-methyl-1-piperidyl)pyridine-3-carboxamide] | +++ (“+++” means <3 uM) |
| CC1CCN(c2nc(-c3cc(F)cc(OC(C)C)c3)ccc2C(=O)NS(=O)(=O)c2ccc[nH]c2=O)CC1 [Compound 737, 6-(3-fluoro-5-isopropoxy-phenyl)-2-(4-methyl-1-piperidyl)-N-[(2-oxo-1H-pyridin-3-yl)sulfonyl]pyridine-3-carboxamide] | +++ (“+++” means <3 uM) |
| Cc1ccccc1Oc1nc(-c2cc(F)cc(OCC(C)C)c2)ccc1C(=O)NS(=O)(=O)c1ccn[nH]1 [Compound 738, 6-(3-fluoro-5-isobutoxy-phenyl)-2-(2-methylphenoxy)-N-(1H-pyrazol-5-ylsulfonyl)pyridine-3-carboxamide] | +++ (“+++” means <3 uM) |
| CC(C)COc1cc(F)cc(-c2ccc(C(=O)NS(=O)(=O)c3ccn[nH]3)c(N3CCc4ccccc43)n2)c1 [Compound 739, 6-(3-fluoro-5-isobutoxy-phenyl)-2-indolin-1-yl-N-(1H-pyrazol-5-ylsulfonyl)pyridine-3-carboxamide] | ++ (“++” means between 3 uM and 10 uM) |
| CC(C)Oc1ccc(-c2ccc(C(=O)NS(=O)(=O)c3cccc(N)n3)c(N(C)CC3CC3)n2)cn1 [Compound 740, N-[(6-amino-2-pyridyl)sulfonyl]-2-[cyclopropylmethyl(methyl)amino]-6-(6-isopropoxy-3-pyridyl)pyridine-3-carboxamide] | ++ (“++” means between 3 uM and 10 uM) |
| CC(C)Oc1ccc(-c2ccc(C(=O)NS(=O)(=O)c3ccn[nH]3)c(N3CCC[C@H](c4ccccc4)C3)n2)cn1 [Compound 741, 6-(6-isopropoxy-3-pyridyl)-2-[(3R)-3-phenyl-1-piperidyl]-N-(1H-pyrazol-5-ylsulfonyl)pyridine-3-carboxamide] | +++ (“+++” means <3 uM) |
| CC(C)Oc1ccc(-c2ccc(C(=O)NS(=O)(=O)c3cccc(N)n3)c(N3CCC(c4ccccc4)CC3)n2)cn1 [Compound 742, N-[(6-amino-2-pyridyl)sulfonyl]-6-(6-isopropoxy-3-pyridyl)-2-(4-phenyl-1-piperidyl)pyridine-3-carboxamide] | +++ (“+++” means <3 uM) |
| Cc1cc(C)c(Oc2nc(C3CCC(C)CC3)ccc2C(=O)NS(=O)(=O)c2ccc[nH]c2=O)c(C)c1 (stereo not shown) [Compound 743, 6-(4-methylcyclohexyl)-N-[(2-oxo-1H-pyridin-3-yl)sulfonyl]-2-(2,4,6-trimethylphenoxy)pyridine-3-carboxamide] | +++ (“+++” means <3 uM) |
| Cc1cccc(C)c1Cn1nc(-c2cccc(OC(C)(C)C)c2)cc1C(=O)NS(=O)(=O)c1ccccc1 [Compound 744, N-(benzenesulfonyl)-5-(3-tert-butoxyphenyl)-2-[(2,6-dimethylphenyl)methyl]pyrazole-3-carboxamide] | +++ (“+++” means <3 uM) |
| CC(C)Oc1ccc(-c2ccc(C(=O)NS(=O)(=O)c3cccc(N)n3)c(N3CCCC(F)C3)n2)cn1 (stereo not shown) [Compound 745, N-[(6-amino-2-pyridyl)sulfonyl]-2-(3-fluoro-1-piperidyl)-6-(6-isopropoxy-3-pyridyl)pyridine-3-carboxamide] | ++ (“++” means between 3 uM and 10 uM) |
| Cc1cc(C)c(Oc2nc(N3CCCC3)ccc2C(=O)NS(=O)(=O)c2cccc(N)n2)c(C)c1 [Compound 746, N-[(6-amino-2-pyridyl)sulfonyl]-6-pyrrolidin-1-yl-2-(2,4,6-trimethylphenoxy)pyridine-3-carboxamide] | +++ (“+++” means <3 uM) |
| CNc1cccc(S(=O)(=O)NC(=O)C2Cc3ccccc3CCN2Cc2c(C)cc(C)cc2C)n1 (stereo not shown) [Compound 747, N-[[6-(methylamino)-2-pyridyl]sulfonyl]-3-[(2,4,6-trimethylphenyl)methyl]-1,2,4,5-tetrahydro-3-benzazepine-4-carboxamide] | +++ (“+++” means <3 uM) |
| Cc1cc(C)c(Oc2nc(C3CCOCC3)ccc2C(=O)NS(=O)(=O)c2cccc(N)n2)c(C)c1 [Compound 748, N-[(6-amino-2-pyridyl)sulfonyl]-6-tetrahydropyran-4-yl-2-(2,4,6-trimethylphenoxy)pyridine-3-carboxamide] | ++ (“++” means between 3 uM and 10 uM) |
| COC1CCCN(c2nc(-c3cc(F)cc(OCC(C)C)c3)ccc2C(=O)NS(=O)(=O)c2ccn[nH]2)C1 (stereo not shown) [Compound 749, 6-(3-fluoro-5-isobutoxy-phenyl)-2-(3-methoxy-1-piperidyl)-N-(1H-pyrazol-5-ylsulfonyl)pyridine-3-carboxamide] | +++ (“+++” means <3 uM) |
| CC1CCN(c2nc3c(cc2C(=O)NS(=O)(=O)c2cccc(N)n2)CCCC3(C)C)CC1 [Compound 750, N-[(6-amino-2-pyridyl)sulfonyl]-8,8-dimethyl-2-(4-methyl-1-piperidyl)-6,7-dihydro-5H-quinoline-3-carboxamide] | +++ (“+++” means <3 uM) |
| CC(C)COc1cc(F)cc(-c2ccc(C(=O)NS(=O)(=O)c3cccc(N)n3)c(N3[C@H](C)CC[C@H]3C)n2)c1 [Compound 751, N-[(6-amino-2-pyridyl)sulfonyl]-2-[(2R,5R)-2,5-dimethylpyrrolidin-1-yl]-6-(3-fluoro-5-isobutoxy-phenyl)pyridine-3-carboxamide] | +++ (“+++” means <3 uM) |
| CC1(CNc2nc(C(C)(C)C)ccc2C(=O)NS(=O)(=O)c2ccc(N)cc2)CCOCC1 [Compound 752, N-(4-aminophenyl)sulfonyl-6-tert-butyl-2-[(4-methyltetrahydropyran-4-yl)methylamino]pyridine-3-carboxamide] | ++ (“++” means between 3 uM and 10 uM) |
| CC(C)(C)c1ccc(C(=O)NS(=O)(=O)c2ccc(N)cc2)c(N2CCCCC2)n1 [Compound 753, N-(4-aminophenyl)sulfonyl-6-tert-butyl-2-(1-piperidyl)pyridine-3-carboxamide] | ++ (“++” means between 3 uM and 10 uM) |
| COc1ccc(-c2ccc(C(=O)NS(=O)(=O)c3cccc(N)n3)c(Oc3c(C)cc(C)cc3C)n2)c(OC)n1 [Compound 754, N-[(6-amino-2-pyridyl)sulfonyl]-6-(2,6-dimethoxy-3-pyridyl)-2-(2,4,6-trimethylphenoxy)pyridine-3-carboxamide] | +++ (“+++” means <3 uM) |
| Cn1ccc2cccc(Cn3nc(C(C)(C)C)cc3C(=O)NS(=O)(=O)c3cccc(N)c3)c21 [Compound 755, N-(3-aminophenyl)sulfonyl-5-tert-butyl-2-[(1-methylindol-7-yl)methyl]pyrazole-3-carboxamide] | ++ (“++” means between 3 uM and 10 uM) |
| CC(C)COc1cc(F)cc(-c2ccc(C(=O)NS(=O)(=O)c3ccn[nH]3)c(N3CCCC(C)C3)n2)c1 (stereo not shown) [Compound 756, 6-(3-fluoro-5-isobutoxy-phenyl)-2-(3-methyl-1-piperidyl)-N-(1H-pyrazol-5-ylsulfonyl)pyridine-3-carboxamide] | +++ (“+++” means <3 uM) |
